Data on three compounds can be found in ChEMBL document CHEMBL1201862, “PubChem BioAssay data set” (2004).

A word on the IC50: it is the concentration that inhibits the measured activity by half.

The source made the active and inactive calls. Cut-off read from the data, not from the text of the source: actives have a measured IC50 and inactives only a lower limit.

Chain of Envelope glycoprotein gp160 (Q6QLK5 whole entry, the tested form may be a part): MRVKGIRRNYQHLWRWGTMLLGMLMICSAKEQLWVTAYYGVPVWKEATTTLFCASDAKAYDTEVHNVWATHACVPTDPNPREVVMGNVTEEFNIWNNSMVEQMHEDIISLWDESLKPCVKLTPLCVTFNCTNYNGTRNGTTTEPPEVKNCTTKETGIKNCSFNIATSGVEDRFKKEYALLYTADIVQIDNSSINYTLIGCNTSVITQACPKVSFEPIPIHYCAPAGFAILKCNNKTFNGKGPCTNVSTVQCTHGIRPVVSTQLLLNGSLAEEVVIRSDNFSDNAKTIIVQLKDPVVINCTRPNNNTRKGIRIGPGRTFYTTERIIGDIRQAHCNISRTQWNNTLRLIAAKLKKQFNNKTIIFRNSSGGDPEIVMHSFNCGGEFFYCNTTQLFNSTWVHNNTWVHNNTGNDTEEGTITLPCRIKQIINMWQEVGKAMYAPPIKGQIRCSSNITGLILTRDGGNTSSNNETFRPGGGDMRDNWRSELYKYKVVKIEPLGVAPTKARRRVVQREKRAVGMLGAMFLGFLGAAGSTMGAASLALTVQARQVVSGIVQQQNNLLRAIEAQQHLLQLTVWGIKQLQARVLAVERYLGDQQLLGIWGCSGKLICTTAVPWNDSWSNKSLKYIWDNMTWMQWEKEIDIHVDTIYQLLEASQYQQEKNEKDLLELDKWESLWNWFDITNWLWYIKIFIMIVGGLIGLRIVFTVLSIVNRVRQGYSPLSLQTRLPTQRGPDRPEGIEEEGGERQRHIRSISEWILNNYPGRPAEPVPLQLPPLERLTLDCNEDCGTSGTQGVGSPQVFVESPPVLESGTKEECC

The experiment has as its target Envelope glycoprotein gp160 (Human immunodeficiency virus 1, UniProt Q6QLK5). The experiment is described as follows: cell-free HIV fusion peptide-binding blockers – biochemical, uHTS, fluorescence dequenching, […] (AID 1986).
As for `COc1ccc(-c2csc(NC(=O)c3ccccc3NS(=O)(=O)c3ccc(C)cc3)n2)cc1`, the half-maximal inhibitory concentration (IC50) was 12.4 µM (active). Consider `CCCCCNC(=O)c1ccc2c(=O)[nH]c3c(C(=O)NCC4CCCO4)sc(=S)n3c2c1` (stereo not drawn), for which the half-inhibitory concentration (IC50) is 20 µM (active).

`CC(C)(C)c1ccc2c(c1)OC(C(=O)N/N=C\c1ccc(-c3cccc(C(=O)O)c3)o1)CO2` (stereo not drawn): the half-inhibitory concentration (IC50) is 14.1 µM (active).
